Read-outs that look alike come from different tables or passages of the source.
Legend:
Sp1 = target: T1, Sp1 (Homo sapiens, UniProt P08047); assay: Sp1 super gel shift EMSA (K562 cell nuclear extracts); format: biochemical; conditions: specificity for CCHC vs CCHH zinc finger
T1 construct: treatment of K562 cell nuclear extracts with the compounds; host or cells: K562 cell nuclear extracts
Method: To determine if compound 44, 45 or 47 binding activity was specific for CCHC zinc fingers, a super gel shift EMSA after treatment of K562 cell nuclear extracts with the compounds was performed. This was followed by super shifting with Sp1-specific antibody. Sp1 was chosen because it is a cellular transcription factor that contains three copies of a classical type CCHH zinc finger motif that are required for Sp1 binding to its DNA target. […] Super gel shifting to determine the specificity of zinc finger reactive compounds was carried out using an Sp1 consensus oligomer (Stratagene, La Jolla, Calif.), K562 cell nuclear extracts, and antibodies for Sp1 (Sp1[PEP2]-G) (extracts and Sp1 Abs from Santa Cruz Biotechnology, Inc., Santa Cruz, Calif.). The binding reactions of oligonucleotides with K562 nuclear extract, as well as electrophoretic conditions were carried out as described in the Gelshift Buffer Kit, Stratagene , La Jolla, Calif.

[1] = system: fusion of the HL2/3 and MAGI-CCR-5 cells; assay: viral fusion assay (HL2/3 and MAGI-CCR-5 co-culture); format: cell-based
Method: Determination of the effect of the test compounds on viral fusion were carried out as follows. Briefly, HL2/3 cells stably expressing HIV-1 Tat and cell surface gp120 and MAGI-CCR-5 cells stably expressing CD4 and CCR5 on their cell surface, containing a β-galactosidase reporter gene under the control of the HIV-1 LTR were pretreated with test compound for 1 h at 37° C. After incubation, the cells were mixed in […] (2×10^5 MAGI-CCR-5 to 8×10^5 HL2/3 cells) and co-cultured for 18 h at 37° C.; cultures were fixed and stained with X-gal solution for β-galactosidase activity. Blue cells represented the Tat transactivation of the HV-1 LTR upon fusion of the HL2/3 and MAGI-CCR-5 cells via the CD4/CCR5 co-receptor gp120 interaction.

Pr55gag precursor = target: T2, Pr55gag precursor (Human immunodeficiency virus type 1 group M subtype B, UniProt P03347); assay: Gag precursor cross-linking and processing in U1 cells (Western blotting); format: cell-based, HIV-1; conditions: TNFα-induced U1 cells
T2 construct: endogenous in cells; host or cells: U1 cells (latently HIV-1 infected), induced with TNFα
Method: (§1) Thiolester compounds were also tested for their ability to. inhibit HIV-1 replication in TNFα-induced U1 and ACH-2 cells. U1 cells were induced with 5 ng/ml of TNFα in the presence of various concentrations of the thiolesters 44, 45 or 47. Forty-eight hours later the cultures were characterized for virus p24 antigen production and cell viability. […] Compound 44 killed 60% of the cells at 200 μM. […] Precursor processing evaluation performed as described by Turpin (1997) Antiviral Chem. Chemother. 8:60-69. Thus, thiolester PATEs initiate intracellular disulfide cross-linking of precursor polyproteins during late phase virus assembly and mediate a direct virucidal effect via an attack on the mature NCp7 retroviral zinc fingers in the cell-free virus.
Virion cross linking was performed as described by Rice (1995) Science 270:1194-1197 and Turpin (1997) Antiviral Chem. Chemother. 8:60-67. Briefly, highly purified HIV-1MN (11.8 μg total protein) was incubated for 2 hour with concentrations of compound. Virions were concentrated and residual compound was removed by centrifugation (18,000×g, 1 h, 4° C.). The viral pellet was solubilized in 0.5 M Tris-HCl, (pH 6.8), 50% glycerol, 8% SDS and 0.4% bromophenol blue and proteins resolved by Western blotting. Western blotting to detect the expression of HIV-1 proteins in U1 cells or virus pellets for virion cross-linking experiments was carried out as described by Turpin (1996) J. Virol. 70:6180-6189. Briefly, 50 μg of total cellular protein for U1 experiments or the. total virion pellet (11.8 μg total viral protein) for NCp7 cross linking studies was resolved on 4 to 20% polyacrylamide gels in SDS with Tris-Glycine (Novex, San Diego Calif.). Samples for reduced gels were boiled for 5 min in the presence of 5% β-ME prior to loading. Resolved proteins were electroblotted on to polyvinylidene difluoride (PVDF) membranes, and HIV-1 specific proteins were detected using a mixture of goat anti-HIV-1 NCp7 and p24 or anti-NCp7 for virion proteins alone (a kind gift of L. E. Henderson, AIDS Vaccine Program NCI-FCRDC, Frederick, Md.). […]

U1 cells = assay: Cell viability of TNFα-induced U1 cells; format: cell-based
Method: as §1

[2] = target: T3, recombinant HIV-1 integrase (Human immunodeficiency virus type 1 group M subtype B, UniProt P03366); assay: HIV-1 integrase 3′ processing and strand transfer assay; format: biochemical
T3 construct: recombinant HIV-1 integrase; S. Hughes, ABL Basic Research NCI-FCRDC, Frederick Md
Method: (§2) The 5-bromovaleroyl thioester, compound 44, and two 5-pyridiniovaleroyl thioesters, compounds 45and 47, were analyzed in mechanistic and target-based assays. […] Assays for activity against HIV-1 reverse transcriptase rAdT (template/primer) and rCdG (template/primer) using recombinant HIV-1 reverse transcriptase (S. Hughes, ABL Basic Research NCI-FCRDC, Frederick Md.) were performed as described by Rice (1997) supra. Substrate cleavage of recombinant HIV-1 protease in the presence of test compounds using an HPLC-based methodology with the artificial substrate Ala-Ser-Glu-Asn-Try-Pro-Ile-Val-amide (Multiple Peptide Systems, San Diego Calif.) was performed as described by Rice (1997) supra. The ability of recombinant HIV-1 integrase (S. Hughes, ABL Basic Research NCI-FCRDC, Frederick Md.) to carry out 3′ processing and strand transfer activities in the presence of test compounds was performed as described by Buckheit (1994) AIDS Res. Hum. Retroviruses 10:1497-1506, and Turpin (1998) Antimicrob. Agents Chemother. 42: 487-494.

CEM-SS cells = assay: cells; format: cell-based; conditions: for IC50: 50% cytotoxicity, read-out: IC50
[3] = target: T4, recombinant HIV-1 protease (Human immunodeficiency virus type 1 group M subtype B, UniProt P03366); assay: HIV-1 protease substrate cleavage (HPLC) assay; format: biochemical
T4 construct: recombinant HIV-1 protease
Method: as §2

T1 sequence (P08047 whole entry): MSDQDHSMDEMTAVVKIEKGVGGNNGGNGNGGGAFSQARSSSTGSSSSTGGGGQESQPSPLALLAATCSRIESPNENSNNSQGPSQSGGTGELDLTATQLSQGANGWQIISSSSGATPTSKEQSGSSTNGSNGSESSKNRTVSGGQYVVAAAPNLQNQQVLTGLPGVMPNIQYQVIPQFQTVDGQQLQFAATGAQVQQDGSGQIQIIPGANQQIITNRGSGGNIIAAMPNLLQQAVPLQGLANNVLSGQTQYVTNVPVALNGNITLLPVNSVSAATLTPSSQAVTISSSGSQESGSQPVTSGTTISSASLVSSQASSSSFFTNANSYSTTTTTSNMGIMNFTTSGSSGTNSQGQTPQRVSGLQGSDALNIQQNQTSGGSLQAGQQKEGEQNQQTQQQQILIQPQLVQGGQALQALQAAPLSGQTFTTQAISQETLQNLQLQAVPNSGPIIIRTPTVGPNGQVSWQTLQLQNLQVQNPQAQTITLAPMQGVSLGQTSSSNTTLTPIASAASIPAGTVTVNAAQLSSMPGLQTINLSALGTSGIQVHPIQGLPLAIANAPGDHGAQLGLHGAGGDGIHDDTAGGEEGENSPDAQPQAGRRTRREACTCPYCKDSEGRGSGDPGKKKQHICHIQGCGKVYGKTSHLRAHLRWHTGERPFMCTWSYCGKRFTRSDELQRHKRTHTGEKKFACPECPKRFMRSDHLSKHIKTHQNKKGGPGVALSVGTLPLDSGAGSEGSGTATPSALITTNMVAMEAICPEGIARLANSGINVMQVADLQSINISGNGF

SMILES	effect on super shifting of Sp1 bound to its DNA target (Sp1)	inhibition of fusion to host cells (in words) [1]	cross-linking and processing of viral precursor polyproteins (in words) (Pr55gag precursor)	cells killed (U1 cells; U1 cells, at 200 μM) [%]	cellular toxicity in U1 cells (U1 cells; high test dose of 100 μM)	inhibition of HIV-1 integrase (in words) [2]	IC50 (CEM-SS cells; Table 5) [µM]	inhibition of HIV-1 protease (in words) [3]	cellular toxicity in U1 cells (U1 cells; higher dose testing (300 μM))	IC50 [2] [µM]	IC50 [3] [µM]	IC50 (CEM-SS cells; Table 10) [µM]	cellular toxicity (in words) (CEM-SS cells; high test dose of 316 μM)	IC50 (CEM-SS cells; Homo sapiens, CEM-SS, Table 6) [µM]
CC(=O)NS(=O)(=O)c1ccc(NC(=O)c2ccccc2SC(=O)CCCCBr)cc1 [Compound 44, N-[2-(5-bromovaleroylthio)benzoyl]sulfacetamide]	failed to alter the pattern of super shifting of Sp1	did not inhibit	induced β-ME reversible alterations in the mobility of zinc finger containing HIV-1 precursor proteins at a intermediate level	60	No cellular toxicity	did not inhibit	184.5	did not inhibit						
O=C(CCCC[n+]1ccccc1)Sc1ccccc1C(=O)Nc1ccc(S(=O)(=O)c2ccc([N+](=O)[O-])cc2)cc1 [Compound 47]	failed to alter the pattern of super shifting of Sp1	did not inhibit	induced cross-linking of viral precursor polyproteins and prevented processing of those precursors		No cellular toxicity	did not inhibit		did not inhibit	no toxicity	> 100	> 100			
CC(=O)NS(=O)(=O)c1ccc(NC(=O)c2ccccc2SC(=O)CCCC[n+]2ccccc2)cc1 [Compound 45, N-[2-(5-pyridinio-valeroylthio)benzoyl]sulfacetamide bromide]	failed to alter the pattern of super shifting of Sp1	did not inhibit	induced cross-linking of viral precursor polyproteins and prevented processing of those precursors		No cellular toxicity	did not inhibit	>316	did not inhibit	no toxicity			>316	no toxicity	
O=C(O)CCCC[n+]1ccccc1.[Br-] [Compound 53, 5-pyridiniovaleric acid]														> 316

From US7625917B2, “Thiolesters and uses thereof” (priority 1998, dated 2009)
